In PubChem BioAssay (NCI):
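Growth conditions: 96-well plates. Treatment: test compound, 48 hours, 5 concentrations. Analysis: linear interpolation between bracketing concentrations; unreached endpoints set to highest concentration. TGI: concentration producing complete growth inhibition.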

What was measured:
Assay in all cases: inhibition of tumour cell growth, NCI panel, 48 h
786-0 renal = tested on: 786-0 renal
A498 renal = tested on: A498 renal
A549 NSCLC = tested on: A549 NSCLC
ACHN renal = tested on: ACHN renal
CAKI-1 renal = tested on: CAKI-1 renal
CCRF-CEM leukemia = tested on: CCRF-CEM leukemia
COLO 205 colon = tested on: COLO 205 colon
DLD-1 colon = tested on: DLD-1 colon
DMS 114 small cell lung = tested on: DMS 114 small cell lung
DMS 273 small cell lung = tested on: DMS 273 small cell lung
EKVX NSCLC = tested on: EKVX NSCLC
HCC-2998 colon = tested on: HCC-2998 colon
HCT-116 colon = tested on: HCT-116 colon
HCT-15 colon = tested on: HCT-15 colon
HL-60(TB) leukemia = tested on: HL-60(TB) leukemia
HOP-62 NSCLC = tested on: HOP-62 NSCLC
HOP-92 NSCLC = tested on: HOP-92 NSCLC
HT29 colon = tested on: HT29 colon
IGROV1 ovarian = tested on: IGROV1 ovarian
K-562 leukemia = tested on: K-562 leukemia
KM12 colon = tested on: KM12 colon
KM20L2 colon = tested on: KM20L2 colon
LOX IMVI melanoma = tested on: LOX IMVI melanoma
LXFL 529 NSCLC = tested on: LXFL 529 NSCLC
M14 melanoma = tested on: M14 melanoma
MALME-3M melanoma = tested on: MALME-3M melanoma
MOLT-4 leukemia = tested on: MOLT-4 leukemia
NCI-H226 lung = tested on: NCI-H226 lung
NCI-H23 lung = tested on: NCI-H23 lung
NCI-H460 lung = tested on: NCI-H460 lung
NCI-H522 lung = tested on: NCI-H522 lung
OVCAR-3 ovarian = tested on: OVCAR-3 ovarian
OVCAR-4 ovarian = tested on: OVCAR-4 ovarian
OVCAR-5 ovarian = tested on: OVCAR-5 ovarian
RPMI-8226 leukemia = tested on: RPMI-8226 leukemia
RXF 393 renal = tested on: RXF 393 renal
RXF-631 renal = tested on: RXF-631 renal
SF-268 CNS = tested on: SF-268 CNS
SF-295 CNS = tested on: SF-295 CNS
SF-539 CNS = tested on: SF-539 CNS
SK-MEL-2 melanoma = tested on: SK-MEL-2 melanoma
SK-MEL-28 melanoma = tested on: SK-MEL-28 melanoma
SK-MEL-5 melanoma = tested on: SK-MEL-5 melanoma
SK-OV-3 ovarian = tested on: SK-OV-3 ovarian
SN12C renal = tested on: SN12C renal
SNB-19 CNS = tested on: SNB-19 CNS
SNB-75 CNS = tested on: SNB-75 CNS
SNB-78 CNS = tested on: SNB-78 CNS
SR leukemia = tested on: SR leukemia
SW-620 colon = tested on: SW-620 colon
TK-10 renal = tested on: TK-10 renal
U251 CNS = tested on: U251 CNS
UO-31 renal = tested on: UO-31 renal
XF 498 CNS = tested on: XF 498 CNS
HOP-18 NSCLC = tested on: HOP-18 NSCLC
M19-MEL melanoma = tested on: M19-MEL melanoma
OVCAR-8 ovarian = tested on: OVCAR-8 ovarian
UACC-257 melanoma = tested on: UACC-257 melanoma
UACC-62 melanoma = tested on: UACC-62 melanoma

With `COc1ccc2c3c([nH]c(=O)c2c1C(=O)O)-c1ccccc1CC3` the TGI (786-0 renal) was > 100 µM, the TGI (A498 renal) was > 100 µM and the TGI (A549 NSCLC) was > 100 µM. For the same compound, the TGI (ACHN renal) was > 100 µM, the TGI (CAKI-1 renal) was > 100 µM and the TGI (CCRF-CEM leukemia) was > 100 µM. The TGI (COLO 205 colon) was > 100 µM, the TGI (DLD-1 colon) was > 100 µM and the TGI (DMS 114 small cell lung) was > 100 µM. For the same compound, the TGI (DMS 273 small cell lung) was > 100 µM, the TGI (EKVX NSCLC) was > 100 µM and the TGI (HCC-2998 colon) was > 100 µM. The TGI (HCT-116 colon) was > 100 µM, the TGI (HCT-15 colon) was > 100 µM and the TGI (HL-60(TB) leukemia) was > 100 µM. The TGI (HOP-62 NSCLC) was > 100 µM, the TGI (HOP-92 NSCLC) was > 100 µM and the TGI (HT29 colon) was > 100 µM. The TGI (IGROV1 ovarian) was > 100 µM, the TGI (K-562 leukemia) was > 100 µM and the TGI (KM12 colon) was > 100 µM. For the same compound, the TGI (KM20L2 colon) was > 100 µM, the TGI (LOX IMVI melanoma) was > 100 µM and the TGI (LXFL 529 NSCLC) was > 100 µM. For the same compound, the TGI (M14 melanoma) was > 100 µM, the TGI (MALME-3M melanoma) was > 100 µM and the TGI (MOLT-4 leukemia) was > 100 µM. The TGI (NCI-H226 lung) was > 100 µM, the TGI (NCI-H23 lung) was > 100 µM and the TGI (NCI-H460 lung) was > 100 µM. For the same compound, the TGI (NCI-H522 lung) was > 100 µM, the TGI (OVCAR-3 ovarian) was > 100 µM and the TGI (OVCAR-4 ovarian) was > 100 µM. For the same compound, the TGI (OVCAR-5 ovarian) was > 100 µM, the TGI (RPMI-8226 leukemia) was > 100 µM and the TGI (RXF 393 renal) was > 100 µM. For the same compound, the TGI (RXF-631 renal) was > 100 µM, the TGI (SF-268 CNS) was > 100 µM and the TGI (SF-295 CNS) was > 100 µM. For the same compound, the TGI (SF-539 CNS) was > 100 µM, the TGI (SK-MEL-2 melanoma) was > 100 µM and the TGI (SK-MEL-28 melanoma) was > 100 µM. For the same compound, the TGI (SK-MEL-5 melanoma) was > 100 µM, the TGI (SK-OV-3 ovarian) was > 100 µM and the TGI (SN12C renal) was > 100 µM. For the same compound, the TGI (SNB-19 CNS) was > 100 µM, the TGI (SNB-75 CNS) was > 100 µM and the TGI (SNB-78 CNS) was > 100 µM. The TGI (SR leukemia) was > 100 µM, the TGI (SW-620 colon) was > 100 µM and the TGI (TK-10 renal) was > 100 µM. For the same compound, the TGI (U251 CNS) was > 100 µM, the TGI (UO-31 renal) was > 100 µM and the TGI (XF 498 CNS) was > 100 µM.
In the case of `C[P+](C)(C)C`, the TGI (786-0 renal) is reported as > 100 µM, the TGI (A549 NSCLC) is reported as > 100 µM and the TGI (ACHN renal) is reported as > 100 µM. The TGI (CAKI-1 renal) was > 100 µM, the TGI (CCRF-CEM leukemia) was > 100 µM and the TGI (COLO 205 colon) was > 100 µM. The TGI (DLD-1 colon) was > 100 µM, the TGI (DMS 114 small cell lung) was > 100 µM and the TGI (EKVX NSCLC) was > 100 µM. For the same compound, the TGI (HCC-2998 colon) was > 100 µM, the TGI (HCT-116 colon) was > 100 µM and the TGI (HCT-15 colon) was > 100 µM. The TGI (HL-60(TB) leukemia) was > 100 µM, the TGI (HOP-18 NSCLC) was > 100 µM and the TGI (HOP-62 NSCLC) was > 100 µM. For the same compound, the TGI (HOP-92 NSCLC) was > 100 µM, the TGI (HT29 colon) was > 100 µM and the TGI (IGROV1 ovarian) was > 100 µM. The TGI (K-562 leukemia) was > 100 µM, the TGI (KM12 colon) was > 100 µM and the TGI (KM20L2 colon) was > 100 µM. For the same compound, the TGI (LOX IMVI melanoma) was > 100 µM, the TGI (LXFL 529 NSCLC) was > 100 µM and the TGI (M14 melanoma) was > 100 µM. The TGI (M19-MEL melanoma) was > 100 µM, the TGI (MALME-3M melanoma) was > 100 µM and the TGI (MOLT-4 leukemia) was > 100 µM. The TGI (NCI-H226 lung) was > 100 µM, the TGI (NCI-H23 lung) was > 100 µM and the TGI (NCI-H460 lung) was > 100 µM. For the same compound, the TGI (OVCAR-3 ovarian) was > 100 µM, the TGI (OVCAR-4 ovarian) was > 100 µM and the TGI (OVCAR-5 ovarian) was > 100 µM. For the same compound, the TGI (OVCAR-8 ovarian) was > 100 µM, the TGI (RPMI-8226 leukemia) was > 100 µM and the TGI (RXF 393 renal) was > 100 µM. The TGI (RXF-631 renal) was > 100 µM, the TGI (SF-268 CNS) was > 100 µM and the TGI (SF-295 CNS) was > 100 µM. The TGI (SF-539 CNS) was > 100 µM, the TGI (SK-MEL-2 melanoma) was > 100 µM and the TGI (SK-MEL-28 melanoma) was > 100 µM. The TGI (SK-MEL-5 melanoma) was > 100 µM, the TGI (SK-OV-3 ovarian) was > 100 µM and the TGI (SN12C renal) was > 100 µM. For the same compound, the TGI (SNB-19 CNS) was > 100 µM, the TGI (SNB-75 CNS) was > 100 µM and the TGI (SNB-78 CNS) was > 100 µM. For the same compound, the TGI (SR leukemia) was > 100 µM, the TGI (SW-620 colon) was > 100 µM and the TGI (TK-10 renal) was > 100 µM. For the same compound, the TGI (U251 CNS) was > 100 µM, the TGI (UACC-257 melanoma) was > 100 µM and the TGI (UACC-62 melanoma) was > 100 µM. The TGI (UO-31 renal) was > 100 µM and the TGI (XF 498 CNS) was > 100 µM.
`O=C1CC(c2c(-c3ccccc3)[nH]c3ccccc23)C(=O)N1c1ccccc1` (stereo not given) was tested, and the TGI (786-0 renal) was > 100 µM, the TGI (A498 renal) was > 100 µM and the TGI (A549 NSCLC) was > 100 µM. The TGI (ACHN renal) was > 100 µM, the TGI (CAKI-1 renal) was > 100 µM and the TGI (CCRF-CEM leukemia) was > 100 µM. The TGI (DLD-1 colon) was > 100 µM, the TGI (DMS 114 small cell lung) was > 100 µM and the TGI (DMS 273 small cell lung) was > 100 µM. For the same compound, the TGI (EKVX NSCLC) was > 100 µM, the TGI (HCC-2998 colon) was > 100 µM and the TGI (HCT-116 colon) was > 100 µM. For the same compound, the TGI (HCT-15 colon) was > 100 µM, the TGI (HL-60(TB) leukemia) was > 100 µM and the TGI (HOP-62 NSCLC) was 94 µM. For the same compound, the TGI (HT29 colon) was > 100 µM, the TGI (IGROV1 ovarian) was > 100 µM and the TGI (K-562 leukemia) was > 100 µM. The TGI (KM12 colon) was > 100 µM, the TGI (KM20L2 colon) was > 100 µM and the TGI (LXFL 529 NSCLC) was > 100 µM. For the same compound, the TGI (M14 melanoma) was > 100 µM, the TGI (M19-MEL melanoma) was > 100 µM and the TGI (MALME-3M melanoma) was > 100 µM. For the same compound, the TGI (MOLT-4 leukemia) was > 100 µM, the TGI (NCI-H226 lung) was > 100 µM and the TGI (NCI-H23 lung) was > 100 µM. The TGI (NCI-H460 lung) was > 100 µM, the TGI (OVCAR-3 ovarian) was > 100 µM and the TGI (OVCAR-4 ovarian) was > 100 µM. The TGI (OVCAR-5 ovarian) was > 100 µM, the TGI (OVCAR-8 ovarian) was > 100 µM and the TGI (RPMI-8226 leukemia) was > 100 µM. The TGI (RXF 393 renal) was > 100 µM, the TGI (RXF-631 renal) was > 100 µM and the TGI (SF-295 CNS) was > 100 µM. For the same compound, the TGI (SF-539 CNS) was > 100 µM, the TGI (SK-MEL-2 melanoma) was > 100 µM and the TGI (SK-MEL-28 melanoma) was > 100 µM. The TGI (SK-MEL-5 melanoma) was > 100 µM, the TGI (SK-OV-3 ovarian) was > 100 µM and the TGI (SNB-75 CNS) was > 100 µM. The TGI (SNB-78 CNS) was > 100 µM, the TGI (SW-620 colon) was > 100 µM and the TGI (TK-10 renal) was > 100 µM. The TGI (U251 CNS) was > 100 µM, the TGI (UACC-257 melanoma) was > 100 µM and the TGI (UACC-62 melanoma) was > 100 µM. For the same compound, the TGI (UO-31 renal) was > 100 µM and the TGI (XF 498 CNS) was > 100 µM.
